In ChEMBL document CHEMBL1275412, “Detection of new arr-4 and arr-5 gene cassettes in clinical Pseudomonas aeruginosa and Klebsiella pneumoniae strains from Brazil” (2008):
Values after ≈ are worked out from the molar mass of the structure shown.

Experiments:
Klebsiella pneumoniae [1] = test: Antibacterial activity against Klebsiella pneumoniae K688 with arr-5 gene by Etest method; type: functional
Escherichia coli [2] = test: Antibacterial activity against Escherichia coli […] harboring arr-4 gene after 20 hrs by Etest method; type: functional
Klebsiella pneumoniae [3] = test: Antibacterial activity against Klebsiella pneumoniae K56 with arr-5 gene by Etest method; type: functional
Escherichia coli [4] = test: Antibacterial activity against Escherichia coli […] harboring arr-5 gene after 20 hrs by Etest method; type: functional
Klebsiella pneumoniae [5] = test: Antibacterial activity against Klebsiella pneumoniae K224 with arr-5 gene by Etest method; type: functional
Klebsiella pneumoniae [6] = test: Antibacterial activity against Klebsiella pneumoniae ATCC 10031 control strain by Etest method
Pseudomonas aeruginosa = test: Antibacterial activity against Pseudomonas aeruginosa PS1111 with arr-4 gene by Etest method; type: functional
Klebsiella pneumoniae [7] = test: Antibacterial activity against Klebsiella pneumoniae K830 with arr-5 gene by Etest method; type: functional

Question: What does the source list for `CO[C@H]1/C=C/O[C@@]2(C)Oc3c(C)c(O)c4c(O)c(c(/C=N/N5CCN(C)CC5)c(O)c4c3C2=O)NC(=O)/C(C)=C\C=C\[C@H](C)[C@H](O)[C@@H](C)[C@@H](O)[C@@H](C)[C@H](OC(C)=O)[C@@H]1C` [RIFAMPIN]?
Answer: MIC (Klebsiella pneumoniae [1]): 8 µg/mL (≈ 9.72 µM); MIC (Escherichia coli [2]): > 256 µg/mL; MIC (Klebsiella pneumoniae [3]): 8 µg/mL (≈ 9.72 µM); MIC (Escherichia coli [4]): > 256 µg/mL; MIC (Klebsiella pneumoniae [5]): 8 µg/mL (≈ 9.72 µM); MIC (Klebsiella pneumoniae [6]): 6 µg/mL (≈ 7.29 µM); MIC (Pseudomonas aeruginosa): > 32 µg/mL; MIC (Klebsiella pneumoniae [7]): > 32 µg/mL
